# Patent US20240293392A1, “INHIBITOR COMPOUNDS” (NeoPhore Limited, priority 2021, published 2024)
# Columns and labels:
# [1] = target: T1, recombinant N-terminal MLH1 (residues 15-340) (Homo sapiens, UniProt P40692); assay: Fluorescence Polarisation Assay for MLH1; type: binding; conditions: fluorescence polarisation probe displacement; 100 nM N-terminal MLH1, 5 nM probe compound
# T1 construct: recombinant N-terminal MLH1 (residues 15-340)
# T1 sequence (P40692 15-340): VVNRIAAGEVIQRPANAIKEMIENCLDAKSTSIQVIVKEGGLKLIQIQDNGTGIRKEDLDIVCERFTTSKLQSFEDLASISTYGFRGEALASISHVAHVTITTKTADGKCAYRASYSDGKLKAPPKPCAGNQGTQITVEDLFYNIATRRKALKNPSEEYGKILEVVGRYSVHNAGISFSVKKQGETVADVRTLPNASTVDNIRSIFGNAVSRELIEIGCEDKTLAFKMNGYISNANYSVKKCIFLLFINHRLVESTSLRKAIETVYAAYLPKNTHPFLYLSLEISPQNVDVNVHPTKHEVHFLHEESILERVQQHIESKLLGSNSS
# Method in brief: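 FP displacement assay: 100 nM MLH1 (residues 15-340) preincubated 30 min at room temperature with compound in 25 mM HEPES pH 7.5, 250 mM NaCl, 10 mM MgCl2, 0.01% Triton X-100, 5 mM DTT, then 5 nM rhodamine-labelled probe added and read immediately. Data normalised to no-inhibitor and no-enzyme controls.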
# [2] = target: T2, recombinant N-terminal PMS2 (residues 1-365) (Homo sapiens, UniProt P54278); assay: Fluorescence Polarisation Assay for PMS2; type: binding; conditions: fluorescence polarisation probe displacement; 10 nM N-terminal PMS2, 5 nM probe compound; read-out: PMS2 IC50
# T2 construct: recombinant N-terminal PMS2 (residues 1-365)
# T2 sequence (P54278 1-365): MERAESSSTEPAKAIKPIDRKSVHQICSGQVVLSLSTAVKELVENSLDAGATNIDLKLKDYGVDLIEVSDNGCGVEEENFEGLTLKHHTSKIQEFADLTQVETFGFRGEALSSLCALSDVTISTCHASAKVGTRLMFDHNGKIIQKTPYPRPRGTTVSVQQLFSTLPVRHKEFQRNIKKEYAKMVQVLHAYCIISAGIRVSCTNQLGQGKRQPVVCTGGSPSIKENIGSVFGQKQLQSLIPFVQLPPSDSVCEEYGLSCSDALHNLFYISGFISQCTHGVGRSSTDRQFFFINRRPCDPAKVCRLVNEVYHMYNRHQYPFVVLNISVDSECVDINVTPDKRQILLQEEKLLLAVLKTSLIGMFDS
# Method in brief: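 Competition fluorescence polarisation with 10 nM N-terminal PMS2 and 5 nM fluorescent probe (final), read after 1 h at room temperature following 30 min compound pre-incubation. Data normalised to no-inhibitor and no-enzyme controls; single-point screening or serial dilutions for potency.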
IC50 [1] [µM],IC50 [2] [µM],SMILES
< 1,1 to 10,"CN(C)C(=O)c1cc2c(c(N[C@@H]3CCOC3)c1)CN(C(=O)c1c(O)cc(O)cc1OCc1ccccc1)CC2 [Example 129, (R)-2-(2-(Benzyloxy)-4,6-dihydroxybenzoyl)-N,N-dimethyl-8-((tetrahydrofuran-3-yl)amino)-1,2,3,4-tetrahydroisoquinoline-6-carboxamide]"
< 1,< 1,"CN(C)C(=O)c1cc2c(c(N[C@H]3CCOC3)c1)CN(C(=O)c1c(O)cc(O)cc1OCc1ccccc1)CC2 [Example 130, (S)-2-(2-(Benzyloxy)-4,6-dihydroxybenzoyl)-N,N-dimethyl-8-((tetrahydrofuran-3-yl)amino)-1,2,3,4-tetrahydroisoquinoline-6-carboxamide]"
< 1,< 1,"CN(C)CCOc1cc2c(c(N[C@H]3CCOC3)c1)CN(C(=O)c1c(O)cc(O)cc1OCc1ccccc1)CC2 [Example 132, (S)-(2-(Benzyloxy)-4,6-dihydroxyphenyl)(6-(2-(dimethylamino)ethoxy)-8-((tetrahydrofuran-3-yl)amino)-3,4-dihydroisoquinolin-2(1H)-yl)methanone]"
1 to 10,1 to 10,"Cn1ccc(Nc2cccc3c2CN(C(=O)c2c(O)cc(O)cc2OCc2ccccc2)CC3)cc1=O [Example 133, 4-((2-(2-(Benzyloxy)-4,6-dihydroxybenzoyl)-1,2,3,4-tetrahydro-isoquinolin-8-yl)amino)-1-methylpyridin-2(1H)-one]"
< 1,> 10,"O=C(c1c(O)cc(O)cc1OCc1ccccc1)N1CCc2cccc(Nc3ccc(=O)[nH]c3)c2C1 [Example 134, 5-((2-(2-(Benzyloxy)-4,6-dihydroxybenzoyl)-1,2,3,4-tetrahydroisoquinolin-8-yl)amino)pyridin-2(1H)-one]"
< 1,1 to 10,"Cn1cc(Nc2cccc3c2CN(C(=O)c2c(O)cc(O)cc2OCc2ccccc2)CC3)ccc1=O [Example 135, 5-((2-(2-(Benzyloxy)-4,6-dihydroxybenzoyl)-1,2,3,4-tetrahydroisoquinolin-8-yl)amino)-1-methylpyridin-2(1H)-one]"
< 1,< 1,"CN1C[C@H](Nc2cccc3c2CN(C(=O)c2c(O)cc(O)cc2OCc2ccccc2)C3)CC1=O [Example 136, (R)-4-((2-(2-(Benzyloxy)-4,6-dihydroxybenzoyl)isoindolin-4-yl)amino)-1-methylpyrrolidin-2-one]"
1 to 10,< 1,"O=C(c1c(O)cc(O)cc1OCC1CCCCC1)N1CCc2cccc(N[C@H]3CCOC3)c2C1 [Example 140, (S)-(2-(Cyclohexylmethoxy)-4,6-dihydroxyphenyl)(8-((tetrahydrofuran-3-yl)amino)-3,4-dihydroisoquinolin-2(1H)-yl)methanone]"
1 to 10,> 10,"COCCOc1cc2c(c(N[C@@H]3CCOC3)c1)CN(C(=O)c1c(O)cc(O)cc1OCC1CC1)CC2 [Example 141, (R)-(2-(Cyclopropylmethoxy)-4,6-dihydroxyphenyl)(6-(2-methoxyethoxy)-8-((tetrahydrofuran-3-yl)amino)-3,4-dihydroisoquinolin-2(1H)-yl)methanone]"
< 1,> 10,"COCCOc1cc2c(c(N[C@@H]3CCOC3)c1)CN(C(=O)c1c(O)cc(O)cc1OCc1ccccn1)CC2 [Example 142, (R)-(2,4-Dihydroxy-6-(pyridin-2-ylmethoxy)phenyl)(6-(2-methoxyethoxy)-8-((tetrahydrofuran-3-yl)amino)-3,4-dihydroisoquinolin-2(1H)-yl)methanone]"
< 1,< 1,"O=C(c1c(O)cc(O)cc1OCc1ccccc1)N1Cc2ccc(CNC3CCOC3)cc2C1 (stereo not drawn) [Example 145, (2-(Benzyloxy)-4,6-dihydroxyphenyl)(5-(((tetrahydrofuran-3-yl)amino)methyl)isoindolin-2-yl)methanone]"

# Second part, the compound before the results:
SMILES,IC50 [1] [µM],IC50 [2] [µM]
"CN1CCN(C(=O)c2cc3c(c(N[C@H]4CCOC4)c2)CN(C(=O)c2c(O)cc(O)cc2OCc2ccccc2)CC3)CC1 [Example 127, (S)-(2-(2-(Benzyloxy)-4,6-dihydroxybenzoyl)-8-((tetrahydrofuran-3-yl)amino)-1,2,3,4-tetrahydroisoquinolin-6-yl)(4-methylpiperazin-1-yl)methanone]",< 1,< 1
"CNc1cc(OCCOC)cc2c1CN(C(=O)c1c(O)cc(O)cc1OCc1ccccc1)CC2 [Example 128, (2-(Benzyloxy)-4,6-dihydroxyphenyl)(6-(2-methoxyethoxy)-8-(methylamino)-3,4-dihydroisoquinolin-2(1H)-yl)methanone]",1 to 10,1 to 10
"CN(C)CCOc1cc2c(c(N[C@@H]3CCOC3)c1)CN(C(=O)c1c(O)cc(O)cc1OCc1ccccc1)CC2 [Example 131, (R)-(2-(Benzyloxy)-4,6-dihydroxyphenyl)(6-(2-(dimethylamino)ethoxy)-8-((tetrahydrofuran-3-yl)amino)-3,4-dihydroisoquinolin-2(1H)-yl)methanone]",< 1,1 to 10
"CN1C[C@@H](Nc2cccc3c2CN(C(=O)c2c(O)cc(O)cc2OCc2ccccc2)C3)CC1=O [Example 137, (S)-4-((2-(2-(Benzyloxy)-4,6-dihydroxybenzoyl)isoindolin-4-yl)amino)-1-methylpyrrolidin-2-one]",< 1,< 1
"CN1CCC(Oc2cc3c(c(N[C@@H]4CCOC4)c2)CN(C(=O)c2c(O)cc(O)cc2OCc2ccccc2)CC3)CC1 [Example 138, (R)-(2-(Benzyloxy)-4,6-dihydroxyphenyl)(6-((1-methylpiperidin-4-yl)oxy)-8-((tetrahydrofuran-3-yl)amino)-3,4-dihydroisoquinolin-2(1H)-yl)methanone]",< 1,1 to 10
"CN1CCC(Oc2cc3c(c(N[C@H]4CCOC4)c2)CN(C(=O)c2c(O)cc(O)cc2OCc2ccccc2)CC3)CC1 [Example 139, (S)-(2-(Benzyloxy)-4,6-dihydroxyphenyl)(6-((1-methylpiperidin-4-yl)oxy)-8-((tetrahydrofuran-3-yl)amino)-3,4-dihydroisoquinolin-2(1H)-yl)methanone]",< 1,< 1
"CN(c1cccc2c1CN(C(=O)c1c(O)cc(O)cc1OCc1ccccc1)CC2)C1CCOC1 (stereo not drawn) [Example 143, (2-(Benzyloxy)-4,6-dihydroxyphenyl)(8-(methyl(tetrahydrofuran-3-yl)amino)-3,4-dihydroisoquinolin-2(1H)-yl)methanone]",> 10,> 10
"O=C(c1c(O)cc(O)cc1OCc1ccccc1)N1Cc2ccc(CNC3COC3)cc2C1 [Example 144, 2-(Benzyloxy)-4,6-dihydroxyphenyl-(5-((oxetan-3-ylamino)methyl)isoindolin-2-yl)methanone]",< 1,< 1
"CC(=O)N1CC(Nc2cccc3c2CN(C(=O)c2c(O)cc(O)cc2OCc2ccccc2)CC3)C1 [Example 146, 1-(3-((2-(2-(Benzyloxy)-4,6-dihydroxybenzoyl)-1,2,3,4-tetrahydroisoquinolin-8-yl)amino)azetidin-1-yl)ethan-1-one]",< 1,1 to 10
"O=C(c1c(O)cc(O)cc1OCc1ccccc1)N1CCc2cccc(NC3CCS(=O)(=O)C3)c2C1 (stereo not drawn) [Example 147, (2-(Benzyloxy)-4,6-dihydroxyphenyl)(8-((1,1-dioxidotetrahydrothiophen-3-yl)amino)-3,4-dihydroisoquinolin-2(1H)-yl)methanone]",< 1,1 to 10
"COC1COCC1Nc1cccc2c1CN(C(=O)c1c(O)cc(O)cc1OCc1ccccc1)CC2 (stereo not drawn) [Example 148, (2-(Benzyloxy)-4,6-dihydroxyphenyl)(8-((4-methoxytetrahydrofuran-3-yl)amino)-3,4-dihydroisoquinolin-2(1H)-yl)methanone]",1 to 10,> 10
"COCOc1cc(OCOC)c(C(=O)N2CCc3cccc(N(C)C4CN(C(C)=O)C4)c3C2)c(OCc2ccccc2)c1 [Example 149, 1-(3-((2-(2-(Benzyloxy)-4,6-bis(methoxymethoxy)benzoyl)-1,2,3,4-tetrahydroisoquinolin-8-yl)(methyl)amino)azetidin-1-yl)ethan-1-one]",1 to 10,> 10
"COCCCC(=O)N1CC[C@H](N(C)c2cccc3c2CN(C(=O)c2c(O)cc(O)cc2OCc2ccccc2)CC3)C1 [Example 150, (S)-1-(3-((2-(2-(Benzyloxy)-4,6-dihydroxybenzoyl)-1,2,3,4-tetrahydroisoquinolin-8-yl) (methyl)amino)pyrrolidin-1-yl)-4-methoxybutan-1-one]",1 to 10,> 10
